EP3521435A1, “A HIGH STRINGENCY SELECTION SYSTEM FOR PROTEIN EXPRESSION IN PROLINE-AUXOTROPHIC CELLS” (Bayer AG, priority 2018, dated 2019)

Key:
[1] = target: T1, murine P5CS short isoform (Mus musculus, UniProt Q9Z110); settings: Hu et al.; cited from earlier work
T1 sequence (Q9Z110 1-793 isoform Q9Z110-2): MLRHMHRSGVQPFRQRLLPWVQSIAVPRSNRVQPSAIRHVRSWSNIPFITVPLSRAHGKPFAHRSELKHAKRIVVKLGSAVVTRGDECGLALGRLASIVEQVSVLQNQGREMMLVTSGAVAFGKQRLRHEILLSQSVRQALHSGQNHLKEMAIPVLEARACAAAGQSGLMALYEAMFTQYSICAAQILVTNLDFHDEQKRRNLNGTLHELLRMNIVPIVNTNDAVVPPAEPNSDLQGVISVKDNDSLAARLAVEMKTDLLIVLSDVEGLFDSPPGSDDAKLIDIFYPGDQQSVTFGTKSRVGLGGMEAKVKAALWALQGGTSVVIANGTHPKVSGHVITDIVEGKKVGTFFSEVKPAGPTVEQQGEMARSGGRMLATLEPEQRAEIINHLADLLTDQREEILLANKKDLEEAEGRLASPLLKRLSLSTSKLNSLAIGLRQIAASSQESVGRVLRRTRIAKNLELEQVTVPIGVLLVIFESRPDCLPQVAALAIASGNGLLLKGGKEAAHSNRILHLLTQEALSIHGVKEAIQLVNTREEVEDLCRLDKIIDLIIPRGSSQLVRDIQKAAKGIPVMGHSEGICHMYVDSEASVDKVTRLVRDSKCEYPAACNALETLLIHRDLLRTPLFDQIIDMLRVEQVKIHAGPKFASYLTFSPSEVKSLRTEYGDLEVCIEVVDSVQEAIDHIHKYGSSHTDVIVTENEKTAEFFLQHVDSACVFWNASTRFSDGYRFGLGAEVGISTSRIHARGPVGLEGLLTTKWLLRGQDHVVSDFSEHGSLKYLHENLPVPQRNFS

CHO-K1 cells [2] = test: Fed-batch fermentation in shake flasks of human IgG1 expressing stable cell populations; type: cell-based, Chinese hamster; settings: non-selecting conditions; for Productivity profile: human IgG1
CHO-K1 cells [3] = test: as above; type: cell-based, Chinese hamster; settings: selected in CD-Fusion + 10 µg/ml Puromycin (pJF1576), non-selecting conditions; for Productivity profile: human IgG1
Text: To test the performance of P5CS selection in combination with DHP in a production cell line development setting (i.e. only a single selection marker in expression vector), vectors with P5CS selection marker in place of Puromycin selection marker containing human IgG1 expression cassettes were generated and tested. For this experiment, the vector pJF1979 was taken as a reference, with Puromycin selection marker placed downstream of the human IgG1 expression cassette. For comparison, the vectors pJF1969 and pJF1970 were used, which contained short and long isoform of P5CS in place of Puromycin selection marker downstream of human IgG1 expression cassette. As control, vector pJF1576 from Example 8 was used, which contained both P5CS (upstream of human IgG1 expression cassette) and Puromycin (downstream of human IgG1 expression cassette) selection markers. […] The fed-batch was without pH control during cultivation and no additional glucose was fed apart from that present in feeding solutions. Table 22, Table 23 and Table 24 show viable cell density, viability and productivity profiles of cell populations cultured in fed-batch fermentation in shake flasks under non-selecting conditions (i.e. production medium containing proline and no additional selective agents like Puromycin or DHP) after inoculation at 3e5 viable cells/ml. […] Table 21: Cell viabilities determined post-transfection on day 21.

[4] = Day 3 after inoculation, selected in CD-Fusion + 10 µg/ml Puromycin (pJF1576)
[5] = Day 3 after inoculation, selected in CD-Fusion + 10 µg/ml Puromycin (pJF1579)
[6] = Day 5 after inoculation, selected in CD-Fusion + 10 µg/ml Puromycin (pJF1579)
[7] = Day 5 after inoculation, selected in CD-Fusion + 10 µg/ml Puromycin (pJF1576)
[8] = Day 7 after inoculation, selected in CD-Fusion + 10 µg/ml Puromycin (pJF1579)
[9] = Day 10 after inoculation, selected in CD-Fusion + 10 µg/ml Puromycin (pJF1576)
[10] = Day 10 after inoculation, selected in CD-Fusion + 10 µg/ml Puromycin (pJF1579)
[11] = Day 12 after inoculation, selected in CD-Fusion + 10 µg/ml Puromycin (pJF1579)
[12] = Day 14 after inoculation, selected in CD-Fusion + 10 µg/ml Puromycin (pJF1576)
[13] = Day 14 after inoculation, selected in CD-Fusion + 10 µg/ml Puromycin (pJF1579)

In the case of `NCCC[C@H](N)C(=O)O` [Orn, L-Ornithine], the Ki [1] is listed as ~250 µM.
In the case of `COc1ccc(C[C@H](N)C(=O)N[C@H]2[C@@H](O)[C@H](n3cnc4c(N(C)C)ncnc43)O[C@@H]2CO)cc1` [Puromycin], the Viability profile (CHO-K1 cells [2]; Day 0 after inoculation, selected in CD-Fusion + 10 µg/ml Puromycin (pJF1576)) is reported as 99.8%, the Viability profile (CHO-K1 cells [2]; Day 0 after inoculation, selected in CD-Fusion + 10 µg/ml Puromycin (pJF1579)) is reported as 99.8% and the Productivity profile (CHO-K1 cells [2]; [4]) is reported as 13.6 mg/L. For the same compound, the Productivity profile (CHO-K1 cells [2]; [5]) was 12.4 mg/L, the Viability profile (CHO-K1 cells [2]; [4]) was 99.9% and the “Viable cell density profile” value (CHO-K1 cells [2]; [4]) was 1,4E +06 VCD/ml. For the same compound, the Viability profile (CHO-K1 cells [2]; [5]) was 99.8%, the “Viable cell density profile” value (CHO-K1 cells [2]; [5]) was 1,8E +06 VCD/ml and the Productivity profile (CHO-K1 cells [2]; [6]) was 24.4 mg/L. The Viability profile (CHO-K1 cells [2]; [7]) was 99.8%, the “Viable cell density profile” value (CHO-K1 cells [2]; [7]) was 4,8E +06 VCD/ml and the Viability profile (CHO-K1 cells [2]; [6]) was 99.9%. For the same compound, the “Viable cell density profile” value (CHO-K1 cells [2]; [6]) was 5,6E +06 VCD/ml, the Productivity profile (CHO-K1 cells [2]; [8]) was 60.0 mg/L and the “Viable cell density profile” value (CHO-K1 cells [2]; Day 7 after inoculation, selected in CD-Fusion + 10 µg/ml Puromycin (pJF1576)) was 9,5E +06 VCD/ml. The Viability profile (CHO-K1 cells [2]; [8]) was 99.2%, the “Viable cell density profile” value (CHO-K1 cells [2]; [8]) was 1,2E +07 VCD/ml and the Productivity profile (CHO-K1 cells [2]; [9]) was 182.0 mg/L. The Productivity profile (CHO-K1 cells [2]; [10]) was 155.1 mg/L, the “Viable cell density profile” value (CHO-K1 cells [2]; [9]) was 1,2E +07 VCD/ml and the Viability profile (CHO-K1 cells [2]; [10]) was 97.9%. The “Viable cell density profile” value (CHO-K1 cells [2]; [10]) was 1,5E +07 VCD/ml, the Productivity profile (CHO-K1 cells [2]; [11]) was 265.9 mg/L and the Viability profile (CHO-K1 cells [2]; Day 12 after inoculation, selected in CD-Fusion + 10 µg/ml Puromycin (pJF1576)) was 96.2%. For the same compound, the Viability profile (CHO-K1 cells [2]; [11]) was 97.5%, the “Viable cell density profile” value (CHO-K1 cells [2]; [11]) was 1,0E +07 VCD/ml and the Productivity profile (CHO-K1 cells [2]; [12]) was 442.2 mg/L. The Productivity profile (CHO-K1 cells [2]; [13]) was 372.0 mg/L, the Viability profile (CHO-K1 cells [2]; [12]) was 86.2% and the “Viable cell density profile” value (CHO-K1 cells [2]; [12]) was 7,4E +06 VCD/ml. The Viability profile (CHO-K1 cells [2]; [13]) was 92.7%, the “Viable cell density profile” value (CHO-K1 cells [2]; [13]) was 9,7E +06 VCD/ml and the Productivity profile (CHO-K1 cells [3]; Day 5 after inoculation) was 26.6 mg/L. The Productivity profile (CHO-K1 cells [3]; Day 7 after inoculation) was 68.9 mg/L, the Viability profile (CHO-K1 cells [3]; Day 7 after inoculation) was 99.3% and the Viability profile (CHO-K1 cells [3]; Day 10 after inoculation) was 97.0%. The Productivity profile (CHO-K1 cells [3]; Day 12 after inoculation) was 304.9 mg/L and the “Viable cell density profile” value (CHO-K1 cells [3]; Day 12 after inoculation) was 9,1E +06 VCD/ml.
